Data taken from US20060293307A1, “Oxazolidinone derivatives as antimicrobials” (priority 2002, published 2006).
In brackets after ≈: the same amount, converted by molar mass. Like-named read-outs stand apart in the source and are kept apart here.

Assays:
H. influenzae 451 = experiment: MIC against Haemophilus strains; assay type: cell-based; details: s. No. 8, H. influenzae 451
H. influenzae 1381 = experiment: MIC against Haemophilus strains; assay type: cell-based; details: s. No. 7, H. influenzae 1381
H. influenzae P318 = experiment: MIC against Haemophilus strains; assay type: cell-based; details: s. No. 10, H. influenzae P318
H. influenzae 35056 = experiment: MIC against Haemophilus strains; assay type: cell-based; details: s. No. 1, H. influenzae 35056
H. influenzae ATCC 49247 = experiment: MIC against Haemophilus strains; assay type: cell-based; details: s. No. 2, H. influenzae ATCC 49247
H. influenzae 474 = experiment: MIC against Haemophilus strains; assay type: cell-based; details: s. No. 11, H. influenzae 474
H. influenzae 1745 = experiment: MIC against Haemophilus strains; assay type: cell-based; details: s. No. 9, H. influenzae 1745
H. influenzae 49766 = experiment: MIC against Haemophilus strains; assay type: cell-based; details: s. No. 6, H. influenzae 49766
H. influenzae 23 = experiment: MIC against Haemophilus strains; assay type: cell-based; details: s. No. 5, H. influenzae 23
H. influenzae βIac = experiment: MIC against Haemophilus strains; assay type: cell-based; details: s. No. 3, H. influenzae βIac
H. influenzae R = experiment: MIC against Haemophilus strains; assay type: cell-based; details: s. No. 4, H. influenzae R
[1] = Haemophilus influenzae, read-out: MIC

Compound	MIC (H. influenzae 451) [µg/mL]	MIC (H. influenzae 1381) [µg/mL]	MIC (H. influenzae P318) [µg/mL]	MIC (H. influenzae 35056) [µg/mL]	MIC (H. influenzae ATCC 49247) [µg/mL]	MIC (H. influenzae 474) [µg/mL]	MIC (H. influenzae 1745) [µg/mL]	MIC (H. influenzae 49766) [µg/mL]	MIC (H. influenzae 23) [µg/mL]	MIC (H. influenzae βIac) [µg/mL]	MIC (H. influenzae R) [µg/mL]	other results
CO/N=C(\C(=O)N[C@@H]1C(=O)N2C(C(=O)O)=C(CSc3nc(=O)c(O)nn3C)CS[C@H]12)c1csc(N)n1 [Ceftriaxone, reference compound]	0.008 (≈ 0.0144 µM)	0.008 (≈ 0.0144 µM)	0.015 (≈ 0.027 µM)	0.06 (≈ 0.108 µM)	0.125 (≈ 0.225 µM)	0.004 (≈ 0.00721 µM)	0.004 (≈ 0.00721 µM)	0.008 (≈ 0.0144 µM)	0.004 (≈ 0.00721 µM)	<0.002	0.004 (≈ 0.00721 µM)	
C[C@H]1COc2c(N3CCN(C)CC3)c(F)cc3c(=O)c(C(=O)O)cn1c23 [LevoFloxaci, reference compound]	0.015 (≈ 0.0415 µM)	0.015 (≈ 0.0415 µM)	0.03 (≈ 0.083 µM)	0.015 (≈ 0.0415 µM)	0.015 (≈ 0.0415 µM)	0.015 (≈ 0.0415 µM)	0.03 (≈ 0.083 µM)	0.03 (≈ 0.083 µM)	0.015 (≈ 0.0415 µM)	0.008 (≈ 0.0221 µM)	0.015 (≈ 0.0415 µM)	
O=C(CF)NC[C@H]1CN(c2ccc(N3CCN(c4ccc([N+](=O)[O-])s4)CC3)c(F)c2)C(=O)O1												melting point: 145 to 150 °C
CC[C@H]1OC(=O)[C@H](C)C(=O)[C@H](C)[C@@H](O[C@@H]2O[C@H](C)C[C@H](N(C)C)[C@H]2O)[C@](C)(OC)C[C@@H](C)C(=O)[C@H](C)[C@H]2N(CCCCn3cnc(-c4cccnc4)c3)C(=O)O[C@]12C [Telithromycin, reference compound]												MIC (H. influenzae 451; [1]): 2 µg/mL (≈ 2.46 µM); MIC (H. influenzae 1381; [1]): 2 µg/mL (≈ 2.46 µM); MIC (H. influenzae P318; [1]): 1 µg/mL (≈ 1.23 µM); MIC (H. influenzae 35056; [1]): 2 µg/mL (≈ 2.46 µM); MIC (H. influenzae ATCC 49247; Haemophilus influenzae, ATCC49247, read-out: MIC): 2 µg/mL (≈ 2.46 µM); MIC (H. influenzae 474; [1]): 2 µg/mL (≈ 2.46 µM); MIC (H. influenzae 1745; [1]): 1 µg/mL (≈ 1.23 µM); MIC (H. influenzae 49766; [1]): 2 µg/mL (≈ 2.46 µM); MIC (H. influenzae 23; [1]): 2 µg/mL (≈ 2.46 µM); MIC (H. influenzae βIac; [1]): 2 µg/mL (≈ 2.46 µM); MIC (H. influenzae R; [1]): 2 µg/mL (≈ 2.46 µM)
